Laboratory results: patent US20230115945A1, “AMINOPYRIMIDINE COMPOUNDS” (TYRA BIOSCIENCES, INC., priority 2019, published 2023)

Key:
Conditions in all cases: 11-point 3-fold dilution, qPCR readout
FGFR3 = target: T1, FGFR3 (Homo sapiens, UniProt P22607); assay: Kinase binding assay (Kd), FGFR3
T1 construct: made in house; host or cells: E. coli host derived from BL21, infected with T7 phage
Description: (§1) Kinase-tagged T7 phage strains were prepared in an E. coli host derived from the BL21 strain. E. coli were grown to log-phase and infected with T7 phage and incubated with shaking at 32° C. until lysis. The lysates were centrifuged and filtered to remove cell debris. Streptavidin-coated magnetic beads were treated with biotinylated small molecule ligands for 30 minutes at room temperature to generate affinity resins for kinase assays. The liganded beads were blocked with excess biotin and washed with blocking buffer SeaBlock (Pierce), 1% BSA, 0.05% Tween 20, 1 mM DTT to remove unbound ligand and to reduce non-specific binding. Binding reactions were assembled by combining kinases, liganded affinity beads, and test compounds in 1× binding buffer (20% SeaBlock, 0.17×PBS, 0.05% Tween 20, 6 mM DTT).
(§2) Test compounds were prepared as 111X stocks in 100% DMSO. Kds were determined using an 11-point 3-fold compound dilution series with three DMSO control points. All compounds for Kd measurements are distributed by acoustic transfer (non-contact dispensing) in 100% DMSO. The compounds were then diluted directly into the assays such that the final concentration of DMSO was 0.9%. All reactions performed in polypropylene 384-well plate. Each was a final volume of 0.02 ml. The assay plates were incubated at room temperature with shaking for 1 hour and the affinity beads were washed with wash buffer (lx PBS, 0.05% Tween 20). The beads were then re-suspended in elution buffer (lx PBS, 0.05% Tween 20, 0.5 μM non-biotinylated affinity ligand) and incubated at room temperature with shaking for 30 minutes. The kinase concentration in the eluates was measured by qPCR.
(§3) Binding constants were calculated with a standard dose-response curve using the Hill equation: […]
(§4) The Hill Slope was set to −1. Curves were fitted using a non-linear least square fit with the Levenberg-Marquardt algorithm.

FGFR1 = target: T2, FGFR1 (Homo sapiens, UniProt P11362); assay: Kinase binding assay (Kd), FGFR1
T2 construct: made in house; host or cells: E. coli host derived from BL21, infected with T7 phage
T2 sequence (P11362 22-822): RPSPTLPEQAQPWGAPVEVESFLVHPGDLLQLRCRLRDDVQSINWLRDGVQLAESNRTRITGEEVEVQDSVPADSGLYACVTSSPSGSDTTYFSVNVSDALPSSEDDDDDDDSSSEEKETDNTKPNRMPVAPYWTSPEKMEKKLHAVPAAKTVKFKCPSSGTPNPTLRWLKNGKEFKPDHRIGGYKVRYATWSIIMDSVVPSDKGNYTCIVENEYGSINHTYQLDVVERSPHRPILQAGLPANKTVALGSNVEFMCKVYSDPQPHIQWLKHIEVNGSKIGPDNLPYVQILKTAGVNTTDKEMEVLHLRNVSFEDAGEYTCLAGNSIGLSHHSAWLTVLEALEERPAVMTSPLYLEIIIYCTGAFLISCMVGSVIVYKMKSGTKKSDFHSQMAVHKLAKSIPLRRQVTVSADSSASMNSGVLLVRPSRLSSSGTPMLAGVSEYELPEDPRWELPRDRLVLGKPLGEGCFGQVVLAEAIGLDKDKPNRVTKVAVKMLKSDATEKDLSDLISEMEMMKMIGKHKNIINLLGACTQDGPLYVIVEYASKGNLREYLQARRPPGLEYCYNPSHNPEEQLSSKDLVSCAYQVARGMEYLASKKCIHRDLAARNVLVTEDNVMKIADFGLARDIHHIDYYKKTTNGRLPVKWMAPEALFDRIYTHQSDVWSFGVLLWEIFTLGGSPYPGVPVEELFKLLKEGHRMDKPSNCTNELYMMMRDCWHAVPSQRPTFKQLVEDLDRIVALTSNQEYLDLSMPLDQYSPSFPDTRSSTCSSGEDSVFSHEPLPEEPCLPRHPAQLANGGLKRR
Description: as §1, §2, §3, §4

FGFR4 = target: T3, FGFR4 (Homo sapiens, UniProt P22455); assay: Kinase binding assay (Kd), FGFR4
T3 construct: made in house; host or cells: E. coli host derived from BL21, infected with T7 phage
T3 sequence (P22455 22-802): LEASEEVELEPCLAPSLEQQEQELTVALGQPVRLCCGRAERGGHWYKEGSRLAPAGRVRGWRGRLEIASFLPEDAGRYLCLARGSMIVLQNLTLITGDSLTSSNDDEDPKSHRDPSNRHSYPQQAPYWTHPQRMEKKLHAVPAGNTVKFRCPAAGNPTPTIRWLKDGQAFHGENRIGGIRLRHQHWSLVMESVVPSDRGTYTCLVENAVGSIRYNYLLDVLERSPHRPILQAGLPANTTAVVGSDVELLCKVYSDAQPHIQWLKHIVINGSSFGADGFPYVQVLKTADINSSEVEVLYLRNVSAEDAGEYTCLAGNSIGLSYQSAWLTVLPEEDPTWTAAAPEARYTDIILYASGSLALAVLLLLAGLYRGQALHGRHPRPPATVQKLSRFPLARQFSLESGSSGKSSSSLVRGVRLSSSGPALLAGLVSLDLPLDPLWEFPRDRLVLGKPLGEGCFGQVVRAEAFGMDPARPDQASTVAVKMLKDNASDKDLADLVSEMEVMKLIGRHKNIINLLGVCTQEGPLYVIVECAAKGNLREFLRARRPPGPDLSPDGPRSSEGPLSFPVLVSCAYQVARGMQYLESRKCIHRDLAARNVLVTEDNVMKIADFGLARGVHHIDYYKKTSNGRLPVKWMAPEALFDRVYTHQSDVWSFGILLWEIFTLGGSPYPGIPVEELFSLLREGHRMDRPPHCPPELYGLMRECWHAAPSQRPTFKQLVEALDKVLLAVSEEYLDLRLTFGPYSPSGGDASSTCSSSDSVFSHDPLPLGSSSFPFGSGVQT
Description: as §1, §2, §3, §4

FGFR3 (V555M) = target: T4, FGFR3 (V555M) (Homo sapiens, UniProt P22607, V555M); assay: Kinase binding assay (Kd), FGFR3 (V555M)
T4 construct: made in house; host or cells: E. coli host derived from BL21, infected with T7 phage
T4 sequence (P22607 23-806 V555M): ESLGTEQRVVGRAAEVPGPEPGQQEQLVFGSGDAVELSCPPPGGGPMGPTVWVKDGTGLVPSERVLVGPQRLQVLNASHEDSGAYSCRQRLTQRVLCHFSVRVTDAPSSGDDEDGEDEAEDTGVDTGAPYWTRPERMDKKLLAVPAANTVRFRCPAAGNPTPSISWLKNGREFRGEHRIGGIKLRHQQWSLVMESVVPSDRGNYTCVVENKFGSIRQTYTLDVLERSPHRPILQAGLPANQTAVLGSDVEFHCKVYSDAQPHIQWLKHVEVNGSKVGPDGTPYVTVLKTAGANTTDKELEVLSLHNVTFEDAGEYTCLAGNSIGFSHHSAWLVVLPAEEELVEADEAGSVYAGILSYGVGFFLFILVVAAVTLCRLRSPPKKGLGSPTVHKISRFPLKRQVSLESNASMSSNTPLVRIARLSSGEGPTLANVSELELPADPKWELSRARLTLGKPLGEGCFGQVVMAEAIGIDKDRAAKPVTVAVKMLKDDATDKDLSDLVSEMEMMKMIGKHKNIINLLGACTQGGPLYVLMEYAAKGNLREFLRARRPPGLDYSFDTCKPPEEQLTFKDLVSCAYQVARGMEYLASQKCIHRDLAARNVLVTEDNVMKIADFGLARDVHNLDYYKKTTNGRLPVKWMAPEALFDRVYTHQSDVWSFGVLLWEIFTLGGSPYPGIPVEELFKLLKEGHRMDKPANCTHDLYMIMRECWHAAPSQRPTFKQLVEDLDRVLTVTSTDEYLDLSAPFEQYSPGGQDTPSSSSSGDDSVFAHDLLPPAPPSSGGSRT
Description: as §1, §2, §3, §4

FGFR2 = target: T5, FGFR2 (Homo sapiens, UniProt P21802); assay: Kinase binding assay (Kd), FGFR2
T5 construct: made in house; host or cells: E. coli host derived from BL21, infected with T7 phage
T5 sequence (P21802 22-821): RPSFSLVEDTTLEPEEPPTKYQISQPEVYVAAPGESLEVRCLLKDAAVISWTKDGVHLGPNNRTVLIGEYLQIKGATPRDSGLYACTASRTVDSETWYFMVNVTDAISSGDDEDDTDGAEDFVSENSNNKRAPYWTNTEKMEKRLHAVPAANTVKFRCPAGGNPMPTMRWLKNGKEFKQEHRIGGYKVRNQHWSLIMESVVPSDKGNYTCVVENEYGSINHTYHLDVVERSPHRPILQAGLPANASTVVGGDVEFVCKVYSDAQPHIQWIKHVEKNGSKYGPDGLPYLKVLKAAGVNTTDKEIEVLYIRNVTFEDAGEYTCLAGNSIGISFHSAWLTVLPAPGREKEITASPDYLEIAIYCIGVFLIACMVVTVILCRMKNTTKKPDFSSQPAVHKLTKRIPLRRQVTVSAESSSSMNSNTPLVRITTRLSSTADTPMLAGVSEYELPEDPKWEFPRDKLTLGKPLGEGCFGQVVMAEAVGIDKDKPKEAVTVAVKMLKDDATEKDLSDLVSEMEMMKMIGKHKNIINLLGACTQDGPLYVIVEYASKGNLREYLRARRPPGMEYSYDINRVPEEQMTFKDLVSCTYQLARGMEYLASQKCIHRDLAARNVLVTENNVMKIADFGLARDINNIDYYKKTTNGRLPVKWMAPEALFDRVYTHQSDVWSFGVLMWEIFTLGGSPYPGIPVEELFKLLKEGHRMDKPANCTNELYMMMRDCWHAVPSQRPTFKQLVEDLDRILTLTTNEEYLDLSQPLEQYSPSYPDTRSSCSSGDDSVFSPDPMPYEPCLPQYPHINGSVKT
Description: as §1, §2, §3, §4

T1 sequence (P22607 23-806): as the sequence (P22607 23-806 V555M) above, with M533V counted along it

| Kd (FGFR3) | Kd (FGFR1) | Kd (FGFR4) | Kd (FGFR3 (V555M)) | Kd (FGFR2) | Compound |
| --- | --- | --- | --- | --- | --- |
| 1100 nM | 5000 nM | 0.5 µM | 380 nM | 1600 nM | C=CC(=O)Nc1ccc2c(ccn2-c2nc(Nc3ccc(S(C)(=N)=O)cc3OC)ncc2C)c1 (centres unmarked) [Example 75, N-[1-[2-[2-methoxy-4-(methylsulfonimidoyl)anilino]-5-methyl-pyrimidin-4-yl]indol-5-yl]prop-2-enamide] |
| 160 nM | 160 nM | 3 µM | 12 nM | 370 nM | C=CC(=O)Nc1cccc2c1ccn2-c1nc(Nc2ccc(N=S(C)(C)=O)cc2)ncc1Cl [Example 76, N-[1-[5-Chloro-2-[4-[[dimethyl(oxo)-λ^6-sulfanylidene]amino]anilino]-pyrimidin-4-yl]indol-4-yl]prop-2-enamide] |
| 130 nM | 170 nM | 2.6 µM | 7 nM | 260 nM | CCC(=O)Nc1cccc2c1ccn2-c1nc(Nc2ccc(N=S(C)(C)=O)cc2)ncc1Cl [Example 77, N-[1-[5-Chloro-2-[4-[[dimethyl(oxo)-λ^6-sulfanylidene]amino]anilino]-pyrimidin-4-yl]indol-4-yl]propanamide] |
| 140 nM | 250 nM | 4.6 µM | 5 nM | 290 nM | CS(C)(=O)=Nc1ccc(Nc2ncc(Cl)c(-n3ccc4c(NC(=O)C5CC5)cccc43)n2)cc1 [Example 78, N-[1-[5-Chloro-2-[4-[[dimethyl(oxo)-λ^6-sulfanylidene]amino]anilino]-pyrimidin-4-yl]indol-4-yl]cyclopropanecarboxamide] |
| 87 nM | 140 nM | 1 µM | 7 nM | 140 nM | CS(C)(=O)=Nc1ccc(Nc2ncc(Cl)c(-n3ccc4c(N)cccc43)n2)cc1 [Example 79, 1-[5-Chloro-2-[4-[[dimethyl(oxo)-λ^6-sulfanylidene]amino]anilino]-pyrimidin-4-yl]indol-4-amine] |
| 340 nM | 740 nM | 5.3 µM | 23 nM | 680 nM | CS(C)(=O)=Nc1ccc(Nc2ncc(Cl)c(-n3ccc4cc(NC(=O)C5CC5)ccc43)n2)cc1 [Example 80, N-[1-[5-Chloro-2-[4-[[dimethyl(oxo)-λ^6-sulfanylidene]amino]anilino]-pyrimidin-4-yl]indol-5-yl]cyclopropanecarboxamide] |
| 23 nM | 51 nM | 1.9 µM | 2 nM | 62 nM | C=CC(=O)Nc1cccc2c1ccn2-c1nc(Nc2ccc(N3CCS(=N)(=O)CC3)cc2)ncc1Cl [Example 81] |
| 42 nM | 59 nM | 0.45 µM | 2 nM | 50 nM | N=S1(=O)CCN(c2ccc(Nc3ncc(Cl)c(-n4ccc5c(N)cccc54)n3)cc2)CC1 [Example 82, 1-[5-Chloro-2-[4-(1-imino-1-oxo-1,4-thiazinan-4-yl)anilino]pyrimidin-4-yl]indol-4-amine] |
| 59 nM | 86 nM | 1.1 µM | 3 nM | 79 nM | CCC(=O)Nc1cccc2c1ccn2-c1nc(Nc2ccc(N3CCS(=N)(=O)CC3)cc2)ncc1Cl [Example 83, N-[1-[5-Chloro-2-[4-(1-imino-1-oxo-1,4-thiazinan-4-yl)anilino]pyrimidin-4-yl]indol-4-yl]propanamide] |
| 150 nM | 390 nM | 2.3 µM | 11 nM | 330 nM | C=CC(=O)Nc1ccc2c(ccn2-c2nc(Nc3ccc(N=S(C)(C)=O)c(F)c3)ncc2Cl)c1C [Example 84, N-[1-[5-Chloro-2-[4-[[dimethyl(oxo)-λ^6-sulfanylidene]amino]-3-fluoro-anilino]pyrimidin-4-yl]-4-methyl-indol-5-yl]prop-2-enamide] |
